Test results published in patent US20250120890A1, “Oral Care Compositions Comprising Hops Beta Acids And Tin” (The Procter & Gamble Company, priority 2023, published 2025).

Assay: Headspace measurement of DMDS and MeSH from dentifrice samples by SPME GC-SCD
Format: physicochemical
Conditions: 0.100 wt % in stannous dentifrice, each pair of samples with/without
Protocol: The oral care compositions of TABLE 2 were prepared by combining one or more humectants, water, sweetener(s), and metal salts, buffers, dyes, and/or stabilizing agents to create a liquid mixture. The liquid mixture was homogenized at 25° C. until homogeneous and completely dissolved. Next, sodium hydroxide (50% solution) was added to the liquid mixture, and the liquid mixture was homogenized at 25° C. until homogeneous and completely dissolved. A separate powder mixture was prepared by combining the abrasive silica, thickening silica, and opacifier, with any thickening agents, such as xanthan gum, Gantrez, and/or sodium carboxymethylcellulose. The powder mixture was then combined with the liquid mixture and homogenized completely. Next, the surfactant, such as sodium lauryl sulfate, flavor, optional Michael acceptor (“MA”), and optional hops extract were added to the mixture. The contents were homogenized at 25° C. until homogeneous, and entrained air was removed by vacuum. […]
Each salt described in Table 3 was weighed with a Mettler Toledo XSE 205 DualRange balance (Mettler Toledo USA, Columbus, OH, USA) and quantitatively transferred to a 600-mL beaker. […]

## C/C=C/C(=O)C1C(C)C=CCC1(C)C (stereo not shown) [delta-damascone]
  Effect on headspace levels of MeSH and DMDS: reduced the headspace levels of MeSH and DMDS substantially
